Earlier results on one compound are cited in US20170046504A1, “SYSTEM FOR DETERMINING A SUITABILITY OF AN ACTIVE INGREDIENT TO BE APPLIED TRANSDERMALLY OR TRANSMUCOSALLY AND CORRESPONDING METHOD” (LTS Lohmann Therapie-Systeme AG, priority 2014, published 2017).

For series [1] the following is noted: in vivo.
For series [2] the following is noted: assumed.

Take `CN1CCCC1c1cccnc1` (centres unmarked) [nicotine]: the half-life period in series [1] was 1 to 6 h. In addition, the “efficiency for oral administration” value in series [2] is on record as 20-45%.
